Assay [1] has as its system ras protein in ras-transformed cells. The assay is described as follows: Mobility Shift Assay (ras farnesylation in ras-transformed cells). The assay is classed as cell-based. To be noted: 18-hour incubation, read-out: Mobility Shift MED. The procedure:
Twenty-four hours after planting 2×10^6 ras-transformed cells per treatment condition, the farnesylation inhibitor is added at varying concentrations. Following an 18-hour incubation period, cells are lysed in phosphate-buffered saline containing 1% Triton X-100, 0.5% sodium deoxycholate, and 0.1% SDS (sodium dodecyl sulfate), pH 7.4 in the presence of several protease inhibitors (PMSF (phenylmethylsulfonylfluoride), antipain, leupeptin, pepstatin A, and aprotinin all at 1 μg/mL). Ras protein is immunoprecipitated from the supernatants by the addition of 3 μg v-H-ras Ab-2 (Y13-259 antibody from Oncogene Science, Cambridge, Mass.). After overnight immunoprecipitation, 30 μL of a 50% protein G-Sepharose slurry (Pharmacia, Uppsala, Sweden) is added followed by 45-minute incubation. Pellets are resuspended in 2X tris-glycine loading buffer (Novex, San Diego, Calif.) containing 5% mercaptoethanol and then denatured by 5 minutes boiling prior to electrophoresis on 14% Tris-glycine SDS gels. Using Western transfer techniques, proteins are transferred to nitrocellulose membranes followed by blocking in blocking buffer. Upon overnight incubation with primary antibody (pan-ras Ab-2 from Oncogene Science, Cambridge, Mass.), an antimouse HRP (horseradish peroxidase) conjugate secondary antibody (Amersham) is employed for detection of the ras protein. Blots are developed using ECL (enhanced chemiluminescence) techniques (Amersham, Arlington Heights, Ill.).

Assay [2] has as its target T1, rat FPT (Rattus norvegicus, UniProt Q02293+Q04631).
T1 construct: made in house; host or cells: Sf9 insect cells
The assay is described as follows: PFT Inhibitory Activity (protein farnesyl transferase). The assay is classed as biochemical. To be noted: 30° C., 30 minutes. The procedure: The protein farnesyl transferase (PFT) or farnesyl protein transferase (FPT) inhibitory activity of compounds of the present invention were assayed in HEPES buffer (pH 7.4) containing 5 mM potassium phosphate and 20 μM ZnCl2. The solution also contained 5 mM DTT (dithiothreitol), 5 mM MgCl2, and 0.1% PEG 8000. Assays were performed in 96-well plates (Wallec, Finland) and employed solutions composed of varying concentrations of a compound of the present invention in 10% DMSO (dimethylsulfoxide). Upon addition of both substrates, radiolabeled farnesyl pyrophosphate ([1^3 H], specific activity 15-30 Ci/mmol, final concentration 134 nM) and (biotinyl)-Ahe-Thr-Lys-Cys-Val-Ile-Met ([3aS[3a α, 4 β, 6a α]-hexahydro-2-oxo-1H-thieno[3,4-d]imidazole-5-pentanoicacid]-[7-aminoheptanoic acid]-Thr-Lys-Cys-Val-Ile-Met). Ahe is 7-aminoheptanoic acid, Thr is threonine, Lys is lysine, Cys is cysteine, Val is valine, Ile is isoleucine, and Met is methionine (final concentration 0.2 μM); the enzyme reaction was started by addition of SF9 affinity purified rat FPT. After incubation at 30° C. for 30 minutes, the reaction was terminated by diluting the reaction 2.5-fold with a stop buffer containing 1.5 M magnesium acetate, 0.2 M H3 PO4, 0.5% BSA (bovine serum albumin), and strepavidin beads (Amersham, Arlington Heights, Ill.) at a concentration of 1.3 mg/mL. After allowing the plate to settle for 30 minutes at room temperature, radioactivity was quantitated on a microBeta counter (Model 1450, Wallec, Finland). The assay was also carried out without 5 mM potassium phosphate.

The test system of assay [3] is human colon carcinoma. As to conditions: 100 mg/kg, xenografts in nude mice; cited from earlier work.
Assay [4] concerns EJ-1 human bladder carcinoma. As to conditions: 100 mg/kg, xenografts in nude mice; cited from earlier work.
Assay [5] deals with HT1080 human fibrosarcoma. To be noted: 100 mg/kg, xenografts in nude mice; cited from earlier work.
Assay [6] concerns mammary and salivary carcinomas in ras transgenic mice. As to conditions: daily administration; cited from earlier work.
Assay [7] deals with human lung carcinoma with K-ras mutation and p53 deletion. To be noted: nude mice; cited from earlier work.
The mark [8] stands for this setting: HEPES buffer pH 7.4 with 5 mM potassium phosphate, read-out: IC50 (μM) Hepes + 5 mM Phosphate.
Setting [9] is: HEPES buffer pH 7.4 without 5 mM potassium phosphate, read-out: IC50 (μM) Hepes.

Consider 15 compounds from US6143766A, “Benzopyranone and quinolone inhibitors of ras farnesyl transferase” (Warner-Lambert Company, priority 2000, dated 2000).

Structures are written as SMILES. Like-named read-outs stand apart in the source and are kept apart here. Some results are limits rather than exact numbers.

A word on the IC50: it is the concentration that inhibits the measured activity by half. On to `Cn1c(=O)cc(-c2cccc(Cl)c2)c2cc(OC(Cn3ccnc3)c3ccccc3)ccc21` (stereo not drawn) [Example 1, 4-(3-Chloro-phenyl)-6-(2-imidazol-1-yl-1-phenyl-ethoxy)-1-methyl-1H-quinolin-2-one], for which the minimal effective concentration in assay [1] was 1 µM. Further, the IC50 in assay [2] (setting [8]) was 0.068 µM; in assay [2] (setting [9]), 0.064 µM.
As for `Cc1ccccc1-c1cc(=O)oc2cc(OC(Cn3ccnc3)c3ccccc3)ccc12` (stereo not drawn) [Example 8, 7-(2-Imidazol-1-yl-1-phenyl-ethoxy)-4-o-tolyl-chromen-2-one], the IC50 in assay [2] (setting [8]) is 0.92 µM; in assay [2] (setting [9]), 0.98 µM.
Consider `O=c1cc(-c2ccccc2Cl)c2ccc(OC(Cn3ccnc3)c3ccccc3)cc2o1` (stereo not drawn) [Example 10, 4-(2-Chloro-phenyl)-7-(2-imidazol-1-yl-1-phenyl-ethoxy)-chromen-2-one], for which, in assay [1], the minimal effective concentration was more than 0.2 µM. The IC50 in assay [2] (setting [8]) amounted to 0.29 µM; in assay [2] (setting [9]), 0.14 µM.
As for `COC(=O)[C@H](CCSC)NC(=O)[C@H](/C=C\[C@@H](/C=C/[C@@H](N)CS)C(C)C)Cc1ccccc1` [Example B1086], the tumor growth inhibition entry in assay [3], in assay [4] and in assay [5] was “inhibit tumor growth” each time.
Take `O=c1cc(-c2cccc(Cl)c2)c2ccc(OC(Cn3ccnc3)c3ccccc3)cc2o1` (stereo not drawn) [Example 6, 4-(3-Chloro-phenyl)-7-(2-imidazol-1-yl-1-phenyl-ethoxy)-chromen-2-one]: the minimal effective concentration in assay [1] came to 1 µM. Moreover, the IC50 in assay [2] (setting [8]) stood at 0.32 µM; in assay [2] (setting [9]) it was 0.29 µM.
On to `O=c1cc(-c2ccc(Cl)cc2)c2ccc(OC(Cn3ccnc3)c3ccccc3)cc2o1` (stereo not drawn) [Example 9, 4-(4-Chloro-phenyl)-7-(2-imidazol-1-yl-1-phenyl-ethoxy)-chromen-2-one], for which the IC50 in assay [2] (setting [8]) is 1.6 µM; in assay [2] (setting [9]) it was 1.8 µM.
On to `C=CCc1c(OC(Cn2ccnc2)c2ccccc2)ccc2c(-c3ccccc3)cc(=O)oc12` (stereo not drawn) [Example 12, 8-allyl-7-(2-imidazol-1-yl-1-phenyl-ethoxy)-4-phenyl-chromen-2-one], for which the minimal effective concentration in assay [1] is more than 1 µM. Moreover, the values for the IC50 in assay [2] (setting [8]) and in assay [2] (setting [9]) were 0.64 µM and 0.63 µM, respectively.
In the case of `Cn1cncc1C(Oc1ccc2c(c1)c(-c1cccc(Cl)c1)cc(=O)n2C)c1ccccc1` (stereo not drawn) [Example 4, 4-(3-Chloro-phenyl)-1-methyl-6-[(3-methyl-3H-imidazol-4-yl)-phenyl-methoxy]-1H-quinolin-2-one], the results for the IC50 in assay [2] (setting [8]) and in assay [2] (setting [9]) were 1.8 µM and 1.7 µM, respectively.
The corresponding values for `Cc1cccc(-c2cc(=O)oc3cc(OC(Cn4ccnc4)c4ccccc4)ccc23)c1` (stereo not drawn) [Example 7, 7-(2-Imidazol-1-yl-1-phenyl-ethoxy)-4-m-tolyl-chromen-2-one] are 1.4 µM and 0.5 µM.
In the case of `O=c1cc(-c2ccccc2)c2ccc(OC(Cn3ccnc3)c3ccccc3)cc2o1` (stereo not drawn) [Example 5, 7-(2-Imidazol-1-yl-1-phenyl-ethoxy)-4-phenyl-chromen-2-one], in assay [1], the minimal effective concentration was 0.2 µM. The 50% inhibitory concentration (IC50) in assay [2] (setting [8]) worked out at 0.8 µM; in assay [2] (setting [9]) it was 0.74 µM.
On to `CC[C@H](C)[C@@H](CO[C@@H](Cc1ccccc1)C(=O)N[C@@H](CCS(C)(=O)=O)C(=O)OC(C)C)NC[C@@H](N)CS` [L-744,832], for which the tumor regression result in assay [6] is “caused tumor regression”.
As to `Cn1c(=O)cc(-c2cccc(Cl)c2)c2cc(OCc3c[nH]cn3)ccc21` [Example 3, 4-(3-Chloro-phenyl)-6-(1H-imidazol-4-ylmethoxy)-1-methyl-1H-quinolin-2-one], the IC50 is 3.6 µM in assay [2] (setting [8]) and 9.8 µM in assay [2] (setting [9]).
Turning to `CSCC[C@H](NC(=O)c1ccc(NC[C@@H](N)CS)cc1-c1ccccc1)C(=O)O` [FT1276], the “block of tumor growth” value in assay [7] was “selectively block tumor growth”.
Consider `Cn1c(=O)cc(-c2cccc(Cl)c2)c2ccc(OC(Cn3ccnc3)c3ccccc3)cc21` (stereo not drawn) [Example 2, 4-(3-Chloro-phenyl)-7-(2-imidazol-1-yl-1-phenyl-ethoxy)-1-methyl-1H-quinolin-2-one], for which the minimal effective concentration in assay [1] was more than 1 µM. Also, the IC50 in assay [2] (setting [8]) came to 0.99 µM; in assay [2] (setting [9]) it was 0.7 µM.
Taken in the same sequence, the figures for `Cc1ccc(-c2cc(=O)oc3cc(OC(Cn4ccnc4)c4ccccc4)ccc23)cc1` (stereo not drawn) [Example 11, 7-(2-imidazol-1-yl-1-phenyl-ethoxy)-4-p-totyl-chromen-2-one] were 1 µM, 0.52 µM and 0.67 µM.
